Laboratory results published in patent publication US20210379153A1, “COMBINATION THERAPIES COMPRISING SIRP ALPHA-BASED CHIMERIC PROTEINS” (Shattuck Labs, Inc., priority 2018, published 2021).

How the values were obtained:
parental CHOK1 cells = experiment: Flow cytometry binding to parental CHOK1 cells
Excerpt: Scale is shown and yellow arrows correspond with each identified monomer. A schematic of the hexamer species is shown to the right, depicting dimerization of the Fc domain and trimerization of the CD40L domain. […] Recombinant hSIRPα-Fc, hCD40L-Fc, and hIgG1 were used as positive controls. […] In both panels, the CHOK1 Parental is on the left and the CHOK1/hCD47 is on the right. […] For both graphs, the CHOK1 Parental is on the bottom. […] In this figure, the control is the top curve, the SIRPα-Fc-CD40L is the middle curve, and the anti-CD47 is the bottom curve.
The extracellular domain (ECD) of SIRPα and the ECD of CD40L were fused via an antibody Fc domain to generate SIRPαECD-Fc-CD40LECD chimeric proteins. When human proteins were used, the chimeric protein is referred to as hSIRPα-Fc-CD40L; when murine proteins were used, the chimeric protein is referred to as and mSIRPα-Fc-CD40L. […] The purified protein was then analyzed for the presence of each individual domain by Western blotting using anti-SIRPα, anti-Fc, and anti-CD40L antibodies (FIG. 3A, bottom). […] Next, binding affinities for SIRPα-Fc-CD40L to recombinant CD47, CD40, or Fc receptors were evaluated by surface plasmon resonance (SPR). […] A functional ELISA evaluated whether SIRPα-Fc-CD40L could outcompete a commercially available single-sided SIRPα-Fc control for binding to recombinant CD47 (FIG. 3H).

[1] = target: recombinant hCD47 and recombinant hCD40 (Homo sapiens, UniProt P25942+Q08722); experiment: Functional dual ELISA (hCD40 capture, hCD47-His detection); type: binding
[2] = test system: type I interferon regulatory genes INFα1 and IFNβ1; experiment: Type I interferon response in Raji cell:macrophage co-cultures; type: cell-based, human
Procedure: (§1) FIG. 8D: Macrophage:Toledo lymphoma co-cultures were harvested 2 hours into phagocytosis assays in the presence of rituximab ([…]), SIRPα-Fc-CD40L ([…]), or the combination of both agents. Macrophages were isolated by CD11b+ FACS, RNA was prepared, cDNA synthesized, and gene expression (IFNa1, IFNb1, CD80, and CD86) assessed by qRT-PCR. Fold change was calculated using DDCT and values obtained from the housekeeping gene ACTB, and the corresponding values from untreated samples. […] After 2 hours, co-cultures were isolated from tissue culture vessels and were stained with a fluorescently conjugated CD11b antibody to discriminate macrophages. Cells were then assessed by flow cytometry for the co-localization of fluorescent signal from both cells types. Identical assays were set up where macrophages were pre-incubated for 1 hour with 20 μg/mL of a commercially available Fc block cocktail or with 20 μg/mL of a CD40 blocking antibody or with 5 μg/mL of a calreticulin blocking peptide. FIG. 8G: RAW 264.7-Lucia ISG cells were cultured with A20 lymphoma cells in the presence of 50 mg/mL of mSIRPα-Fc-CD40L, recombinant Fc-mCD40L, mSIRPα-Fc, or their combination, 1 mg/mL anti-mCD20, or the combination of mSIRPα-Fc-CD40L and anti-mCD20. After 24-hours type I interferon induced luminescence was assessed using a luminometer. The maximum luminescence (RLU) from each experiment was set to 1, and all other samples were normalized accordingly. Values from repeat experiments are shown.

Toledo lymphoma cells = experiment: Phagocytosis of Toledo lymphoma cells by human monocyte derived macrophages (flow cytometry); type: cell-based; conditions: combination with rituximab
Procedure: as §1
In contrast, phagocytosis-stimulating activity of the combination was not impacted when macrophages were pre-treated with a CD40-blocking antibody (“CD40 Block”).

[3] = test system: IRF-inducible ISG reporter in RAW264.7 cells; experiment: RAW264.7-ISG interferon reporter cells co-cultured with A20 lymphoma cells; type: cell-based, mouse; conditions: monotherapy; 50 mg/mL proteins, 1 mg/mL anti-mCD20; 24 hours
Procedure: as §1, with “Identical assays were set up where macrophages were pre-incubated for 1 hour with 20 μg/mL of a commercially available Fc block cocktail or with 20 μg/mL of a CD40 blocking antibody or with 5 μg/mL of a calreticulin blocking peptide. FIG. 8G: RAW 264.7-Lucia ISG cells were cultured with A20 lymphoma cells in the presence of 50 mg/mL of mSIRPα-Fc-CD40L, recombinant Fc-mCD40L, mSIRPα-Fc, or their combination, 1 mg/mL anti-mCD20, or the combination of mSIRPα-Fc-CD40L and anti-mCD20.” left out, “Values from repeat experiments are shown.” left out
Additionally, a macrophage reporter system was used to detect activation. […] After 24 hours, culture supernatant was collected and assessed for luciferase activity, which would indicate activation of a type I interferon response in the RAW-ISG reporter cells. […]

[4] = test system: HCC827 (high EGFR-expressing lung cancer cell line); experiment: Macrophage engulfment of HCC827 cells; type: cell-based, human; conditions: combination with anti-EGFR antibody (cetuximab); vs low EGFR-expressing tumor cells
[5] = test system: HCC1954 (high Her2-expressing breast cancer cell line); experiment: Macrophage engulfment of HCC1954 cells; type: cell-based, human; conditions: combination with anti-Her2 antibody (trastuzumab); vs low Her2-expressing tumor cells
[6] = test system: MCF7 (low Her2-expressing breast cancer cell line); experiment: Macrophage engulfment of MCF7 cells; type: cell-based, human; conditions: monotherapy
CT26 tumor cells = experiment: CT26 tumor model, checkpoint antibody combinations (first Example 8); type: in vivo, BALB/C mice
Procedure: In FIG. 15B, the treatments included: an anti-CTLA-4 antibody (9D9), an anti-PD-1 antibody (RMP1-14), an anti-OX40 antibody (OX86), or the SIRPα(CD172a)-Fc-CD40L chimeric protein. […] In FIG. 15D, the treatments included the SIRPα(CD172a)-Fc-CD40L chimeric protein then the anti-CTLA-4 antibody. Tumor sizes were assayed every other day until the 27th day after inoculation.

[7] = test system: cynomolgus macaque erythrocytes; experiment: In vitro hemolysis, cynomolgus macaque erythrocytes; type: cell-based
Excerpt: However, the in vitro systems used to test this question have significant limitations, including a complete lack of macrophages in the test system.

## SIRPα-Fc-CD40L: generic name of the SIRPαECD-Fc-CD40LECD chimeric protein; human or murine version according to the experiment
Parental CHOK1 cells
  binding: not to parental CHOK1 cells
[1]
  simultaneous binding of SIRPα-domain to hCD47 and CD40L-domain to hCD40: simultaneous binding
[2]; combination with anti-CD20 antibody
  IFNβ protein synthesis: significantly greater
[2]; combination with anti-CD20 antibody vs either component alone
  RNA expression of INFα1: significantly greater
[2]; combination with anti-CD20 antibody vs sum of alone treatments
  RNA expression of IFNβ1: greater than the sum
Toledo lymphoma cells; CALR Block (calreticulin blocking peptide)
  phagocytosis-stimulating activity: unable to reduce
Toledo lymphoma cells; CD40 Block
  phagocytosis-stimulating activity: not impacted
Toledo lymphoma cells; Fc Block
  phagocytosis-stimulating activity: partially inhibited
Toledo lymphoma cells; calreticulin blocking peptide and Fc receptor block together
  phagocytosis-stimulating activity: greatly reduced
[3]
  interferon gene-driven luciferase activity (type I IFN response): stimulates an increase in interferon gene-driven luciferase activity
[4]
  macrophage engulfment of tumor cells: more effective
[5]
  macrophage engulfment of tumor cells: more effective
[6]
  phagocytosis: demonstrated monotherapy activity
CT26 tumor cells; chimeric protein administered after the anti-CTLA-4 antibody
  improvement in tumor volume: most significant improvement
CT26 tumor cells; combination with anti-CTLA-4 antibody
  tumor volume: reduced tumor volume
[7]
  hemolysis: did not reveal evidence of hemolysis
